For the experiment, the system named is mouse melanoma cells (B16F10 cell line). As to the kind of experiment: Melanin inhibition assay. In kind it is cell-based. The settings on record: found through experimentation; H3 antagonists. As for the experimental part:
The assays utilized mouse melanoma cells (B16F10 cell line) which are very efficient at producing melanin. Various inhibitors and enhancers of melanin synthesis were added to the cultured cells along with experimental samples.
The B16F10 murine melanocytes were seeded into 24-well tissue culture plates and allowed to grow to confluency in complete DMEM. Solutions of H3 antagonists, Arbutin, alpha-Melanocyte Stimulating Hormone (a-MSH), and AA2G were prepared in Complete DMEM. Complete Dulbeco's Modified Eagle Media (DMEM) was used as the untreated control. Additionally, the individual components of the H3 antagonists, Yeast Peptide and Plant Extract, were also analyzed for melanogenic effects. Cells were treated for 72 hours.
For the inhibition assay, the media was removed from the wells and the monolayers were washed with phosphate buffered saline (PBS). NaOH was added to each well and 100 μL of each solution were added to a 96-well plate in duplicate. The plate was measured by optical density readings at 400 nm.
As discussed above, skin pigmentation is determined by the amount of melanin in the skin which is produced by […] melanocytes. In addition to the melanin inhibition study comparing the fermented plant abstract to AA2G, Arbutin, α-MSH, and Kojic acid, a melanin inhibition study was conducted to compare the fermented plant extract with its individual components—peptide from yeast and plant extract—to assess their ability to inhibit melanin synthesis. The melanin assay was conducted using the same methodogies as discussed above with respect to H3 antagonists, in general.

Counter-ions that a name gives are not always drawn.

As to `Br.Br.C[C@@H](N)Cc1c[nH]cn1` [(R)-(-)-a-Methylhistamine dihydrobromide], the “suitability to reduce or eliminate pigmentation in a users skin” value is recorded as “suitable for use as a by-product in cosmetics to reduce or eliminate pigmentation”. The entry for `C[C@H]1[C@H]2CC[C@H]3[C@@H]4CC=C5C[C@@H](N(C)C)CC[C@]5(C)[C@H]4CC[C@]23CN1C` [Conessine] is “suitable for use as a by-product in cosmetics to reduce or eliminate pigmentation”; for `N=C(N)SCCc1cnc[nH]1` [Imetit dihydrobromide] it is “suitable for use as a by-product in cosmetics to reduce or eliminate pigmentation”. For the compound `NCCCCCc1cnc[nH]1` [Impentamine dihydrobromide], the “suitability to reduce or eliminate pigmentation in a users skin” value is “suitable for use as a by-product in cosmetics to reduce or eliminate pigmentation”.

The values are drawn from patent publication US20150272863A1, “H3 ANTAGONIST BY-PRODUCT, ITS MANUFACTURE, AND METHOD OF USING BY-PRODUCT TO REDUCE PIGMENTATION IN SKIN” (Active Concepts, LLC, priority 2014, published 2015).
